According to patent publication US10941157B2, “Pesticidal compositions and uses thereof” (Gilead Apollo, LLC, priority 2015, dated 2021):
In brackets after ≈: the same amount, converted by molar mass. Where two headings read alike, the source gives them in different places.

Columns and labels:
Format in all cases: cell-based
[1] = test system: Phytophthora capsici (Pc); assay: In vitro pathogen growth inhibition assay, Pc; settings: 48 h
Protocol: (§1) A growth inhibition assay was conducted to determine the ability of compounds to control the growth of fungal pathogens, such as Botrtyis cinerea (Bc), Collectotrichum graminicola (Cg), Diplodia maydis (Dm), Fusarium moniliforme (Fm), Fusarium virguliforme (Fv), Phytophthora capsici (Pc), Rhizoctonia solani (Rs), and Septoria tritici (St). The compounds listed in Table 1 were each dissolved in DMSO at 2.5 mg/ml to produce compound stock solutions (“stocks”). […] Negative controls on each plate included 2% DMSO, water, and a blank (media+2% DMSO). Fungal spores were isolated from previously sub-cultured plates of Botrtyis cinerea (Bc), Collectotrichum graminicola (Cg), Diplodia maydis (Dm), Fusarium moniliforme (Fm), Fusarium virguliforme (Fv), Phytophthora capsici (Pc), and Septoria tritici (St). The isolated spores were diluted to individual concentrations with a 17% V8 liquid media. For Rhizoctonia solani (Rs), 1.5 mm mycelial plugs were used in place of spores and ¼ Potato Dextrose Broth (PDB) was used for dilution. The spore concentrations and plug sizes were based on growth curves generated at 48 hours for each pathogen. In a second 96-well plate, the spores or mycelial plugs, media, diluted compound solutions, and controls were combined. Once the compound was added, a true final concentration of compound in each well was measured by an OD600 reading, which adjusted for any compound precipitation that might have occurred in the well. Plate readings were repeated at both 24 and 48 hours. The blank negative control was used as a background subtraction. Additional visual ratings were performed at both 24 and 48 hours for checking on precipitation and confirming efficacy. […] Both tables list the concentration of each compound that was sufficient to ≥90% inhibition of growth for each of the fungal pathogens listed above. In addition, some of compounds were tested in a yeast growth inhibition assay for Saccharomyces cerevisiae (Sc). Table 2 lists the concentration of the tested compound that was sufficient to ≥75% inhibition of Saccharomyces cerevisiae (Sc).

[2] = test system: Rhizoctonia solani (Rs); assay: In vitro pathogen growth inhibition assay, Rs (mycelial plugs); settings: Rhizoctonia solani, 48 h, mycelial plugs
Protocol: as §1

[3] = test system: Diplodia maydis (Dm); assay: In vitro pathogen growth inhibition assay, Dm; settings: Stenocarpella maydis, 48 h
Protocol: as §1

[4] = test system: Botrtyis cinerea (Bc); assay: In vitro pathogen growth inhibition assay, Bc; settings: 48 h
Protocol: as §1

[5] = test system: Fusarium virguliforme (Fv); assay: In vitro pathogen growth inhibition assay, Fv
Protocol: as §1

[6] = test system: Septoria tritici (St); assay: In vitro pathogen growth inhibition assay, St; settings: Zymoseptoria tritici, 48 h
Protocol: as §1

[7] = test system: Collectotrichum graminicola (Cg); assay: In vitro pathogen growth inhibition assay, Cg; settings: 48 h
Protocol: as §1

[8] = test system: Fusarium moniliforme (Fm); assay: In vitro pathogen growth inhibition assay, Fm; settings: Fusarium verticillioides
Protocol: as §1

[9] = ≥90% growth inhibition, 48 hours, vs 2% DMSO control, read-out: Compound Concentration (ppm) sufficient for ≥90% inhibition of Pc
[10] = ≥90% growth inhibition, 48 hours, vs 2% DMSO control, read-out: Compound Concentration (ppm) sufficient for ≥90% inhibition of Rs
[11] = ≥90% growth inhibition, 48 hours, vs 2% DMSO control, read-out: Compound Concentration (ppm) sufficient for ≥90% inhibition of Dm
[12] = ≥90% growth inhibition, 48 hours, vs 2% DMSO control, read-out: Compound Concentration (ppm) sufficient for ≥90% inhibition of Bc
[13] = ≥90% growth inhibition, 48 hours, vs 2% DMSO control, read-out: Compound Concentration (ppm) sufficient for ≥90% inhibition of Fv
[14] = ≥90% growth inhibition, 48 hours, vs 2% DMSO control, read-out: Compound Concentration (ppm) sufficient for ≥90% inhibition of St
[15] = ≥90% growth inhibition, 48 hours, vs 2% DMSO control, read-out: Compound Concentration (ppm) sufficient for ≥90% inhibition of Cg
[16] = ≥90% growth inhibition, 48 hours, vs 2% DMSO control, read-out: Compound Concentration (ppm) sufficient for ≥90% inhibition of Fm
[17] = ≥90% inhibition, 48 hours vs 2% DMSO control, read-out: Compound Concentration (ppm) sufficient for ≥90% inhibition of growth, Pc
[18] = ≥90% inhibition, 48 hours vs 2% DMSO control, read-out: Compound Concentration (ppm) sufficient for ≥90% inhibition of growth, Rs
[19] = ≥90% inhibition, 48 hours vs 2% DMSO control, read-out: Compound Concentration (ppm) sufficient for ≥90% inhibition of growth, Dm
[20] = ≥90% inhibition, 48 hours vs 2% DMSO control, read-out: Compound Concentration (ppm) sufficient for ≥90% inhibition of growth, Bc
[21] = ≥90% inhibition, 48 hours vs 2% DMSO control, read-out: Compound Concentration (ppm) sufficient for ≥90% inhibition of growth, Fv
[22] = ≥90% inhibition, 48 hours vs 2% DMSO control, read-out: Compound Concentration (ppm) sufficient for ≥90% inhibition of growth, St
[23] = ≥90% inhibition, 48 hours vs 2% DMSO control, read-out: Compound Concentration (ppm) sufficient for ≥90% inhibition of growth, Cg
[24] = ≥90% inhibition, 48 hours vs 2% DMSO control, read-out: Compound Concentration (ppm) sufficient for ≥90% inhibition of growth, Fm

Row | SMILES | IC90 [1, 9] [µg/mL] | IC90 [2, 10] [µg/mL] | IC90 [3, 11] [µg/mL] | IC90 [4, 12] [µg/mL] | IC90 [5, 13] [µg/mL] | IC90 [6, 14] [µg/mL] | IC90 [7, 15] [µg/mL] | IC90 [8, 16] [µg/mL] | IC90 [1, 17] [µg/mL] | IC90 [2, 18] [µg/mL] | IC90 [3, 19] [µg/mL] | IC90 [4, 20] [µg/mL] | IC90 [5, 21] [µg/mL] | IC90 [6, 22] [µg/mL] | IC90 [7, 23] [µg/mL] | IC90 [8, 24] [µg/mL]
1 | COc1ccc(F)cc1[C@@H](O)Cn1c(=O)n(C(C)(C)C(=O)NC(C)C)c(=O)c2c(C)c(-n3cccn3)sc21 [Compound I-187] | ≥ 50 | 0.4 (≈ 0.736 µM) | 10 (≈ 18.4 µM) | 2 (≈ 3.68 µM) | 0.4 (≈ 0.736 µM) | > 50 | 10 (≈ 18.4 µM) | 0.4 (≈ 0.736 µM) |  |  |  |  |  |  |  | 
2 | COc1ccc(F)cc1[C@@H](O)Cn1c(=O)n(C(C)(C)C(=O)N2CCCC2)c(=O)c2c(C)c(-n3nccn3)sc21 [Compound I-214] | > 50 | 0.08 (≈ 0.144 µM) | ≥ 10 | 2 (≈ 3.59 µM) | 2 (≈ 3.59 µM) | > 50 | 2 (≈ 3.59 µM) | 0.4 (≈ 0.719 µM) |  |  |  |  |  |  |  | 
3 | COc1ccc(F)cc1[C@H](Cn1c(=O)n(C(C)(C)C(N)=O)c(=O)c2c(C)c(-n3nccn3)sc21)OC(C)C [Compound I-113] |  |  |  |  |  |  |  |  | > 50 | 0.08 (≈ 0.147 µM) | 2 (≈ 3.67 µM) | 2 (≈ 3.67 µM) | 0.4 (≈ 0.734 µM) | 50 (≈ 91.8 µM) | 2 (≈ 3.67 µM) | 0.4 (≈ 0.734 µM)
4 | COc1ccc(F)cc1[C@H](Cn1c(=O)n(C(C)(C)C(=O)NC(C)C)c(=O)c2c(C)c(-n3nccn3)sc21)OC[C@@H](C)O [Compound I-065] |  |  |  |  |  |  |  |  | ≥ 2 | ≥ 0.08 | 0.4 (≈ 0.664 µM) | 2 (≈ 3.32 µM) | 0.4 (≈ 0.664 µM) | ≥ 2 | 0.4 (≈ 0.664 µM) | 0.08 (≈ 0.133 µM)
5 | COc1ccc(F)cc1[C@H](Cn1c(=O)n(C(C)(C)C(=O)N2CCCC2)c(=O)c2c(C)c(-n3cccn3)sc21)OC[C@@H](C)O [Compound I-135] |  |  |  |  |  |  |  |  | > 50 | ≥ 2 | ≥ 10 | 2 (≈ 3.26 µM) | 2 (≈ 3.26 µM) | 50 (≈ 81.5 µM) | 10 (≈ 16.3 µM) | 0.4 (≈ 0.652 µM)
6 | CCOC(=O)c1sc2c(c1C)c(=O)n([C@@H](C)C(=O)NC(C)C)c(=O)n2C[C@H](OCCC#N)c1cc(F)ccc1OC [Compound I-219] | > 50 | > 50 | > 10 | 2 (≈ 3.4 µM) | ≥ 10 | > 50 | 10 (≈ 17 µM) | 0.4 (≈ 0.68 µM) |  |  |  |  |  |  |  | 
7 | CCNC(=O)C(C)(C)n1c(=O)c2c(C)c(-n3cccn3)sc2n(C[C@H](OCCC#N)c2ccccc2OC)c1=O [Compound I-232] | > 50 | 2 (≈ 3.54 µM) | 50 (≈ 88.5 µM) | 10 (≈ 17.7 µM) | 0.4 (≈ 0.708 µM) | > 50 | 10 (≈ 17.7 µM) | 2 (≈ 3.54 µM) |  |  |  |  |  |  |  | 
8 | Cc1c(-n2nccn2)sc2c1c(=O)n(C(C)(C)C(=O)NC1CCC1)c(=O)n2C[C@H](OC(C)C)c1cc(F)ccc1OCC#N [Compound I-267] | > 50 | 0.4 (≈ 0.641 µM) | 2 (≈ 3.21 µM) | 0.4 (≈ 0.641 µM) | 0.4 (≈ 0.641 µM) | > 50 | 2 (≈ 3.21 µM) | 0.08 (≈ 0.128 µM) |  |  |  |  |  |  |  | 
